The values below come from publication PMC8622385, “Metabolites of Prickly Rose: Chemodiversity and Digestive-Enzyme-Inhibiting Potential of Rosa acicularis and the Main Ellagitannin Rugosin D” (Plants, 2021).

Holding throughout (type): biochemical
For test [1], the target named is T1, α-amylase from the human pancreas (Homo sapiens, UniProt P04746).
T1 construct: α-amylase from human pancreas; purchased Lee Biosolutions, Inc. Cat. No. 120-15; host or cells: human pancreas (tissue-derived)
T1 sequence (P04746 16-511): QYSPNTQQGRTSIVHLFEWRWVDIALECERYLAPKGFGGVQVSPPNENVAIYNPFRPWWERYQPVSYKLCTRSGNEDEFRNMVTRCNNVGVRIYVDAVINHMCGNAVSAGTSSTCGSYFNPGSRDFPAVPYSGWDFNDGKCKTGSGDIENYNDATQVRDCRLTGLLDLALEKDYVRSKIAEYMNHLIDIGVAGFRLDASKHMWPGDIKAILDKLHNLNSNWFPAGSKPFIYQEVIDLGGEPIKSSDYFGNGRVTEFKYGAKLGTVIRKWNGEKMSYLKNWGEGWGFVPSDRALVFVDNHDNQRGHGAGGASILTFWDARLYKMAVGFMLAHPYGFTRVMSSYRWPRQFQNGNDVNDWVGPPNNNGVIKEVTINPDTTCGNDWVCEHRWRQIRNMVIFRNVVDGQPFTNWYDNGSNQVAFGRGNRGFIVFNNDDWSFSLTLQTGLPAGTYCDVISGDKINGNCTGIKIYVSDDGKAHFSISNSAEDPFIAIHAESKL
Kind of test: HPLC microfractionation with post-column pancreatic α-amylase inhibition (dyed starch). To be noted: HPLC zone of R. acicularis leaf extract (July sample), 30 s fractions. On the procedure:
The probe of the extract was separated by HPLC, and fractions were eluted every 30 sec, collected, dried and mixed with pancreatic α-amylase. The hydrolytic activity of amylase was studied spectrophotometrically using starch azure as a substrate.
HPLC-PDA-ESI-tQ-MS conditions (Section 3.4) were used to separate the enlarged volume of R. acicularis leaf extract (July sample; 25 μL). The eluates (60 µL) were collected every 30 s by an automated fraction collector, a Shimadzu FRC-10A, and dried under a stream of N2. The eluate residue was dissolved in 50% methanol (50 µL) and added to 50 µL of water, 2.5 mL of Remazol-Brilliant-Blue-R-dyed starch (2% suspension in phosphate buffer, pH of 6.8) and 500 μL α-amylase from the human pancreas (0.4 U/mL), incubated for 50 min (37 °C) and the absorbance was measured at 620 nm. […] The value of 100% destruction of Remazol-Brilliant-Blue-R-dyed starch (or 0% content of intact starch compound) was measured for the eluate with a retention time of 0.5–1.0 min.

The target in test [2] is T2, porcine pancreatic amylase (Sus scrofa, UniProt P00690).
T2 construct: α-amylase from porcine pancreas; purchased Sigma-Aldrich Cat. No. 6255; host or cells: porcine pancreas (tissue-derived)
T2 sequence (P00690 16-511): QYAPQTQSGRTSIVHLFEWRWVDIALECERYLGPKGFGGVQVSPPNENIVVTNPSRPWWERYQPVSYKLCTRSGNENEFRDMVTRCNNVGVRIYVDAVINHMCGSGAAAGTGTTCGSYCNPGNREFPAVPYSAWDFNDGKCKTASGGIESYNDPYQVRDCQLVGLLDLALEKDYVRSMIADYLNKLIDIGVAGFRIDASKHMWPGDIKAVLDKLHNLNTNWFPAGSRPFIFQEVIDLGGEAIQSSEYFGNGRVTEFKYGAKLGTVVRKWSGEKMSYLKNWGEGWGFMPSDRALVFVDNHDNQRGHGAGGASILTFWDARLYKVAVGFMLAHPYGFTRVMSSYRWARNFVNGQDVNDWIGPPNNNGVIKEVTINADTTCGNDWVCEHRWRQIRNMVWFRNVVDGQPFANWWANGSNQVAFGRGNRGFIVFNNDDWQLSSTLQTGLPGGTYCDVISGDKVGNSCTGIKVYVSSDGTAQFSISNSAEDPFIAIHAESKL
Description: Simulated gastrointestinal digestion of artificial substrate mixture, amylase activity (p-nitrophenol marker, HPLC-DAD). To be noted: 1000 μg/mL; control = 100% of enzyme activity. From the text: To study the inhibitory potential of R. acicularis extracts on the digestive enzymes, we used the standardized static, simulated gastrointestinal digestion method of Minekus et al., based on physiologically relevant conditions of digestion. In brief, the artificial substrate mixture, including ethylidene-p-nitrophenyl-α-D-maltoheptaoside (as a carbohydrate model), Nα-benzoyl-L-arginine-7-amino-4-methylcoumarin hydrochloride (as a protein model) and 4-methylumbelliferyl heptanoate (as a lipid model), was digested with extracts of R. acicularis leaves, flowers, roots and fruits (in doses of 100 μg/mL and 1000 μg/mL) by gastric and intestinal enzymatic and electrolyte mixtures (or juices). […] In a final step, concentrations of specific markers, such as p-nitrophenol, 7-amino-4-methylcoumarin and 4-methylumbelliferone, released from an artificial nutrient mixture, were analyzed by an HPLC-DAD assay. […]
For simulation, the known standardized static gastrointestinal digestion method of Minekus et al. was used with no variation. […] The supernatant was analyzed using an HPLC-DAD assay (Section 3.7) to quantify the level of markers as p-nitrophenol, 7-amino-4-methylcoumarin and 4-methylumbelliferone formed from ethylidene-p-nitrophenyl-α-D-maltoheptaoside, Nα-benzoyl-L-arginine- 7-amino-4-methylcoumarin hydrochloride and 4-methylumbelliferyl heptanoate, respectively. […]

Test [3] deals with T3, porcine pancreatic lipase (Sus scrofa, UniProt P00591).
T3 construct: lipase from porcine pancreas; purchased Sigma-Aldrich L3126 (lipase); C3028 (colipase); host or cells: porcine pancreas (tissue-derived)
T3 sequence (P00591 1-450): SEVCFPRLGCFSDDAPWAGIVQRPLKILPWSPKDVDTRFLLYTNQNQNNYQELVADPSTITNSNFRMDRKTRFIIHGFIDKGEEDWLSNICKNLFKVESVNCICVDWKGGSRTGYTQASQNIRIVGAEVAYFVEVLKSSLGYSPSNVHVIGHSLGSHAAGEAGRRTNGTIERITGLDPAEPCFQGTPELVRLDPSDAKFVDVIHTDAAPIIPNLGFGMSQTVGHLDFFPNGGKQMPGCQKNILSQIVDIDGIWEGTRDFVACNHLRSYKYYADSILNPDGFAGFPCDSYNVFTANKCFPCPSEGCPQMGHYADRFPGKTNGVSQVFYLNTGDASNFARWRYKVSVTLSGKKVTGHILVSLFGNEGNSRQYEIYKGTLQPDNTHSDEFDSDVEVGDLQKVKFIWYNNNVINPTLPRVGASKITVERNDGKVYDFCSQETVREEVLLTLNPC
T3 sequence (P02703 23-112 partner): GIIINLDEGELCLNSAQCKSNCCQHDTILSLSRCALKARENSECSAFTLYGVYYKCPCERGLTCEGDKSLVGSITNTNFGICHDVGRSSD
Kind of test: Simulated gastrointestinal digestion of artificial substrate mixture, lipase activity (4-methylumbelliferone marker, HPLC-DAD). To be noted: 1000 μg/mL; control = 100% of enzyme activity.
Description: To study the inhibitory potential of R. acicularis extracts on the digestive enzymes, we used the standardized static, simulated gastrointestinal digestion method of Minekus et al., based on physiologically relevant conditions of digestion [77]. In brief, the artificial substrate mixture, including ethylidene-p-nitrophenyl-α-D-maltoheptaoside (as a carbohydrate model), Nα-benzoyl-L-arginine-7-amino-4-methylcoumarin hydrochloride (as a protein model) and 4-methylumbelliferyl heptanoate (as a lipid model), was digested with extracts of R. acicularis leaves, flowers, roots and fruits (in doses of 100 μg/mL and 1000 μg/mL) by gastric and intestinal enzymatic and electrolyte mixtures (or juices). […] In a final step, concentrations of specific markers, such as p-nitrophenol, 7-amino-4-methylcoumarin and 4-methylumbelliferone, released from an artificial nutrient mixture, were analyzed by an HPLC-DAD assay. […]
For simulation, the known standardized static gastrointestinal digestion method of Minekus et al. [77] was used with no variation. […] The supernatant was analyzed using an HPLC-DAD assay (Section 3.7) to quantify the level of markers as p-nitrophenol, 7-amino-4-methylcoumarin and 4-methylumbelliferone formed from ethylidene-p-nitrophenyl-α-D-maltoheptaoside, Nα-benzoyl-L-arginine- 7-amino-4-methylcoumarin hydrochloride and 4-methylumbelliferyl heptanoate, respectively. […]

As for `O=C(O)[C@H]1O[C@@H](Oc2c(-c3ccc(O)c(O)c3)oc3cc(O)cc(O)c3c2=O)[C@H](O)[C@@H](O)[C@@H]1O` [miquelianin, Quercetin-3-O-glucuronide], the “Pancreatic-α-amylase-inhibiting activity of HPLC zone (in words)” value (shortened to “Pancreatic-α-amylase-inhibiting activity”) in test [1] is listed as “medium activity”.
Regarding `O=C(OC1O[C@@H]2COC(=O)c3cc(O)c(O)c(O)c3-c3c(cc(O)c(O)c3O)C(=O)O[C@H]2[C@H](OC(=O)c2cc(O)c(O)c(O)c2)[C@H]1OC(=O)c1cc(O)c(O)c(O)c1)c1cc(O)c(O)c(O)c1` (some centres unmarked) [tellimagrandin II, Tellimagrandin II1], the “Pancreatic-α-amylase-inhibiting activity” value in test [1] is on record as “medium activity”.
On to `C[C@H]1O[C@H](O[C@H]2[C@H](O)[C@@H](O)[C@@H](O[C@H]3[C@H](O)[C@@H](O)C(O)O[C@@H]3CO)O[C@@H]2CO)[C@H](O)[C@@H](O)[C@@H]1N[C@H]1C=C(CO)[C@@H](O)[C@H](O)[C@H]1O` (some centres unmarked) [Acarbose], for which the “Amylase activity (percentage of initial) after simulated gastrointestinal digestion” value in test [2] is 55%.
In the case of `CCCCCCCCCCC[C@@H](C[C@@H]1OC(=O)[C@H]1CCCCCC)OC(=O)[C@H](CC(C)C)NC=O` [orlistat, reference compound], the “Lipase activity (percentage of initial) after simulated gastrointestinal digestion” value in test [3] is 38%.
As to `O=C(OC[C@H]1O[C@@H](OC(=O)c2cc(O)c(O)c(O)c2)[C@H](OC(=O)c2cc(O)c(O)c(O)c2)[C@@H](OC(=O)c2cc(O)c(O)c(O)c2)[C@@H]1O)c1cc(O)c(O)c(O)c1` [1,2,3,6-tetra-O-galloyl glucose, 1,2,3,6-Tetra-O-galloyl glucose], the “Pancreatic-α-amylase-inhibiting activity” value in test [1] is given as “medium activity”.
